Assay results from patent US20030181418A1, “Pharmaceutical composition” (SANKYO COMPANY, LIMITED, priority 2002, published 2003).
Where two headings read alike, the source gives them in different places.

Tested on: Lewis rat with adjuvant (Mycobacterium butyricum) induced arthritis
Format: in vivo
Settings: distal end of right-and-left thighbone, 21st day after adjuvant, 14th to 20th day
[1] = Example 2, celecoxib 1 mg/kg orally every day and/or Preparation 22 3.5 mg/kg intraperitoneally

With CC(C(=O)O)c1ccc(CC2CCCC2=O)cc1 (stereo not drawn) [Loxoprofen sodium, loxoprofen sodium] the “Bone density (average ± standard deviation)” value (Example 1, loxoprofen sodium 5 mg/kg orally and/or Preparation 4 0.1 mg/kg intraperitoneally, every day) was 106.5 ± 0.8 mg/cm^2.

In the case of Cc1ccc(-c2cc(C(F)(F)F)nn2-c2ccc(S(N)(=O)=O)cc2)cc1 [Celecoxib, celecoxib], the “Bone density (average ± standard deviation)” value [1] is reported as 103.0 ± 1.8 mg/cm^2.

B1: Preparation 22: complex of recombinant human OCIF dimer and DS5; DS5 150 mg/ml, OCIF 5 mg/ml, 7° C., pH 10.5, 168 hours (conjugate, UniProt O00300 22-401, looked up)
Tumor necrosis factor …: ETFPPKYLHYDEETSHQLLCDKCPPGTYLKQHCTAKWKTVCAPCPDHYYTDSWHTSDECLYCSPVCKELQYVKQECNRTHNRVCECKEGRYLEIEFCLKHRSCPPGFGVVQAGTPERNTVCKRCPDGFFSNETSSKAPCRKHTNCSVFGLLLTQKGNATHDNICSGNSESTQKCGIDVTLCEEAFFRFAVPTKFTPNWLSVLVDNLPGTKVNAESVERIKRQHSSQEQTFQLLKLWKHQNKDQDIVKKIIQDIDLCENSVQRHIGHANLTFEQLRSLMESLPGKKVGAEDIEKTIKACKPSDQILKLLSLWRIKNGDQDTLKGLMHALKHSKTYHFPKTVTQSLKKTIRFLHSFTMYKLYQKLFLEMIGNQVQSVKISCL
modifications: dimer complexed with DS5
notes: complex of recombinant human OCIF dimer and DS5; DS5 150 mg/ml, OCIF 5 mg/ml, 7° C., pH 10.5, 168 hours
B1 was tested, and the “Bone density (average ± standard deviation)” value [1] was 104.2 ± 2.1 mg/cm^2.
